Laboratory results reported in patent US12195429B2, “Cannabinoid derivatives” (CANOPY GROWTH CORPORATION, priority 2019, dated 2025).

Experiments:
[1] = target: T1, human CB2 receptor (Homo sapiens, UniProt P34972); test: CB2 radioligand competitive binding assay ([3H]CP 55,940 displacement); conditions: for Selectivity CB2: fold difference in binding affinity, CB2 over CB1, 1.00 = about the same affinity for both receptors
T1 construct: host or cells: CHO-K1

[2] = target: T2, human CB1 receptor (Homo sapiens, UniProt P21554); test: CB1 radioligand competitive binding assay ([3H]CP 55,940 displacement); conditions: for Selectivity CB1: fold difference in binding affinity, CB1 over CB2, 1.00 = about the same affinity for both receptors
T2 construct: host or cells: CHO-K1

[3] = target: T2, human CB1 receptor; test: PathHunter β-arrestin functional assay, CB1 receptor, antagonist mode; format: cell-based
[4] = target: T2, human CB1 receptor; test: PathHunter β-arrestin functional assay, CB1 receptor, agonist mode; format: cell-based; conditions: PathHunter CHO-K1 CNR1 β-arrestin cells; normalized to CP55,940
[5] = read-out: IC50 towards human CB1 receptor, antagonist mode

T2 sequence (P21554 whole entry): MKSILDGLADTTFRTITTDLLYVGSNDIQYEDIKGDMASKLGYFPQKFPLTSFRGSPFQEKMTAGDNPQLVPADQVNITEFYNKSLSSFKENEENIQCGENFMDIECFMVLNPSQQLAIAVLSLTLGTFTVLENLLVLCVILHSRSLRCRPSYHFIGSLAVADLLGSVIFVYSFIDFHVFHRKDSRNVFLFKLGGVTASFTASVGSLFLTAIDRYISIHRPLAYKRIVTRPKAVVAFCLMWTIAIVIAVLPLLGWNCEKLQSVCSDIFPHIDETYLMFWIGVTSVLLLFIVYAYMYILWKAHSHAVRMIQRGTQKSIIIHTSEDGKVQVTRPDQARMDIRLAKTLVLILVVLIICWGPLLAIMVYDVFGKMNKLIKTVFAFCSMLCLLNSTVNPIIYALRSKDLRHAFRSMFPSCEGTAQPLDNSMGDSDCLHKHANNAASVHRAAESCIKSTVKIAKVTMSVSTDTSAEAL
T1 sequence (P34972 whole entry): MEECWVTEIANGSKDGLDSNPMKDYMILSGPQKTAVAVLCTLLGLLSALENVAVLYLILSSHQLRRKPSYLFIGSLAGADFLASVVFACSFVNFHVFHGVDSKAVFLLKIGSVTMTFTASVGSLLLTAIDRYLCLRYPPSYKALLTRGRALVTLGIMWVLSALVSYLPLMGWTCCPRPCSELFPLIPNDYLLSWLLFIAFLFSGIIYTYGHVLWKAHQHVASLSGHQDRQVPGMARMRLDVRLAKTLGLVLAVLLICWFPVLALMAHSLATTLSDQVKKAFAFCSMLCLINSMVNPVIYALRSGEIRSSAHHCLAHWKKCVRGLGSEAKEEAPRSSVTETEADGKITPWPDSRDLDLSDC

| Compound | IC50 [1] | IC50 [2] | IC50 [3, 5] | Selectivity CB2 [1] | Selectivity CB1 [2] | activity towards the human CB1 receptor, agonist mode [4] | IC50 [3] |
| --- | --- | --- | --- | --- | --- | --- | --- |
| CCCCCc1cc(O)c(C2C=C(C)CCC2)c(O)c1-c1nnn[nH]1 (centres unmarked) [Compound 3c, 5′-methyl-4-pentyl-3-(1H-tetrazol-5-yl)-1′,2′,3′,4′-tetrahydro-[1,1′-biphenyl]-2,6-diol] | 1000 to 4990 nM | 1000 to 4990 nM | 1000 to 3000 nM | – | – | – | – |
| C=C(C)[C@@H]1CCC(C)=C[C@H]1c1c(O)cc(CCCCC)c(-c2nnn[nH]2)c1O [Compound 3d, 5′-methyl-4-pentyl-2′-(prop-1-en-2-yl)-3-(1H-tetrazol-5-yl)-1′,2′,3′,4′-tetrahydro-[1,1′-biphenyl]-2,6-diol] | 1000 to 4990 nM | 1000 to 4990 nM | – | 1.00 fold | 1.00 fold | – | – |
| CCCCCc1cc(O)c(C2C=C(C)CCC2)c(O)c1-c1cccnc1 (centres unmarked) [Compound 12c, 5′-methyl-4-pentyl-3-(pyridin-3-yl)-1′,2′,3′,4′-tetrahydro-[1,1′-biphenyl]-2,6-diol] | 500 to 990 nM | > 5000 nM | – | 7.27 fold | – | – | – |
| C=C(C)[C@@H]1CCC(C)=C[C@H]1c1c(O)cc(CCCCC)c(-c2cccnc2)c1O [Compound 12d, 5′-methyl-4-pentyl-2′-(prop-1-en-2-yl)-3-(pyridin-3-yl)-1′,2′,3′,4′-tetrahydro-[1,1′-biphenyl]-2,6-diol] | 1000 to 4990 nM | 1000 to 4990 nM | – | 1.39 fold | – | – | – |
| CCCCCc1cc(O)c(C2C=C(C)CCC2)c(O)c1-c1cncnc1 (centres unmarked) [Compound 13c, 5′-methyl-4-pentyl-3-(pyrimidin-5-yl)-1′,2′,3′,4′-tetrahydro-[1,1′-biphenyl]-2,6-diol] | 1000 to 4990 nM | 1000 to 4990 nM | – | – | – | – | – |
| C=C(C)[C@@H]1CCC(C)=C[C@H]1c1c(O)cc(CCCCC)c(-c2cncnc2)c1O [Compound 13d, 5′-methyl-4-pentyl-2′-(prop-1-en-2-yl)-3-(pyrimidin-5-yl)-1′,2′,3′,4′-tetrahydro-[1,1′-biphenyl]-2,6-diol] | 1000 to 4990 nM | 1000 to 4990 nM | – | 2.35 fold | – | – | – |
| C=C(C)[C@@H]1CCC(C)=C[C@H]1c1c(O)cc(CCCCC)c(-c2ccncc2)c1O [Compound 14d, 5′-methyl-4-pentyl-2′-(prop-1-en-2-yl)-3-(pyridin-4-yl)-1′,2′,3′,4′-tetrahydro-[1,1′-biphenyl]-2,6-diol] | 1000 to 4990 nM | 1000 to 4990 nM | – | 1.00 fold | 1.00 fold | – | – |
| CCCCCc1cc(O)c(C2C=C(C)CCC2)c(O)c1-c1ccco1 (centres unmarked) [Compound 15c, 3-(furan-2-yl)-5′-methyl-4-pentyl-1′,2′,3′,4′-tetrahydro-[1,1′-biphenyl]-2,6-diol] | 1000 to 4990 nM | 1000 to 4990 nM | 1000 to 3000 nM | – | – | – | – |
| C=C(C)[C@@H]1CCC(C)=C[C@H]1c1c(O)cc(CCCCC)c(-c2ccco2)c1O [Compound 15d, 3-(furan-2-yl)-5′-methyl-4-pentyl-2′-(prop-1-en-2-yl)-1′,2′,3′,4′-tetrahydro-[1,1′-biphenyl]-2,6-diol] | 1000 to 4990 nM | > 5000 nM | – | 3.57 fold | – | – | – |
| CCCCCc1cc(O)c(C2C=C(C)CCC2)c(O)c1-c1cccs1 (centres unmarked) [Compound 16c, 5′-methyl-4-pentyl-3-(thiophen-2-yl)-1′,2′,3′,4′-tetrahydro-[1,1′-biphenyl]-2,6-diol] | 500 to 990 nM | 1000 to 4990 nM | 1000 to 3000 nM | 2.22 fold | – | minimal to no activity | – |
| C=C(C)[C@@H]1CCC(C)=C[C@H]1c1c(O)cc(CCCCC)c(-c2cccs2)c1O [Compound 16d] | < 500 nM | 1000 to 4990 nM | – | 7.50 fold | – | – | – |
| CCCCCc1cc(O)c(C2C=C(C)CCC2)c(O)c1-c1ccsc1 (centres unmarked) [Compound 17c, 5′-methyl-4-pentyl-3-(thiophen-3-yl)-1′,2′,3′,4′-tetrahydro-[1,1′-biphenyl]-2,6-diol] | 1000 to 4990 nM | 1000 to 4990 nM | 1000 to 3000 nM | – | – | – | – |
| C=C(C)[C@@H]1CCC(C)=C[C@H]1c1c(O)cc(CCCCC)c(-c2ccsc2)c1O [Compound 17d] | < 500 nM | 1000 to 4990 nM | – | 33.33 fold | – | minimal to no activity | 1000 to 3000 nM |
| C=C(C)[C@@H]1CCC(C)=C[C@H]1c1c(O)cc(CCCCC)c(-c2ccnn2C)c1O [Compound 33d, 5′-methyl-3-(1-methyl-1H-pyrazol-5-yl)-4-pentyl-2′-(prop-1-en-2-yl)-1′,2′,3′,4′-tetrahydro-[1,1′-biphenyl]-2,6-diol] | 1000 to 4990 nM | 1000 to 4990 nM | – | 1.00 fold | 1.00 fold | – | – |
| C=C(C)[C@@H]1CCC(C)=C[C@H]1c1c(O)cc(CCCCC)c(-c2cc3ccccc3s2)c1O [Compound 34d, 4-(benzothiophen-2-yl)-2-[6-isopropenyl-3-methyl-cyclohez-2-en-1-yl]-5-pentyl-benzene-1,3-diol] | < 500 nM | 1000 to 4990 nM | 1000 to 3000 nM | 7.22 fold | – | minimal to no activity | – |
| C=C(C)[C@@H]1CCC(C)=C[C@H]1c1c(O)cc(CCCCC)c(-c2ccnc(C)c2)c1O [Compound 35d, 2-(6-isopropenyl-3-methyl-cyclohex-2-en-1-yl)-4-(2-methyl-4-pyridyl)-5-pentyl-benzene-1,3-diol] | 1000 to 4990 nM | 1000 to 4990 nM | – | 1.60 fold | – | – | – |
| C=C(C)[C@@H]1CCC(C)=C[C@H]1c1c(O)cc(CCCCC)c(-c2c(C)noc2C)c1O [Compound 36d, 3-(3,5-dimethylisoxazol-4-yl)-5′-methyl-4-pentyl-2′-(prop-1-en-2-yl)-1′,2′,3′,4′-tetrahydro-[1,1′-biphenyl]-2,6-diol] | 1000 to 4990 nM | 1000 to 4990 nM | – | – | 2.22 fold | – | – |
| CCCCCc1cc(OC)c(C2C=C(C)CCC2)c(OC)c1-c1cccc(N2CCOCC2)c1 (centres unmarked) [Compound 38c, 4-(2′,4′-dimethoxy-5″-methyl-6′-pentyl-1″,2″,3″,4″-tetrahydro-[1,1′:3′,1″-terphenyl]-3-yl)morpholine] | < 500 nM | < 500 nM | – | 19.05 fold | – | – | – |
| CCCCCc1cc(OC)c(C2C=C(C)CCC2)c(OC)c1-c1cccnc1 (centres unmarked) [Compound 39c, 3-(2,6-dimethoxy-5′-methyl-4-pentyl-1′,2′,3′,4′-tetrahydro-[1,1′-biphenyl]-3-yl)pyridine] | > 5000 nM | > 5000 nM | – | 1.47 fold | – | – | – |
| CCCCCc1cc(OC)c(C2C=C(C)CCC2)c(OC)c1-c1ccccc1 (centres unmarked) [Compound 40c, 2′,6′-dimethoxy-5-methyl-4′-pentyl-1,2,3,4-tetrahydro-1,1′:3′,1″-terphenyl] | 1000 to 4990 nM | > 5000 nM | – | 1.79 fold | – | – | – |
| C=C(C)[C@@H]1CCC(C)=C[C@H]1c1c(O)cc(CCCCC)c(-c2cn[nH]c2)c1O [Compound 41d, 5′-methyl-4-pentyl-2′-(prop-1-en-2-yl)-3-(1H-pyrazol-4-yl)-1′,2′,3′,4′-tetrahydro-[1,1′-biphenyl]-2,6-diol] | 1000 to 4990 nM | 1000 to 4990 nM | – | 1.60 fold | – | – | – |
